Each structure is given as a SMILES string. ± gives the standard deviation of the averaged measurements.

One experiment relates to U-2 OS. Put plainly: total intracellular glutathione (GSH + GSSG) relative to DMSO (% of control); higher = more glutathione. To be noted: 10 µM; 24 h. As to the method: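 Total intracellular glutathione (GSH + GSSG) in U-2 OS cells by GSH/GSSG-Glo after 24 h compound treatment at 5, 10 and 20 uM (some at 40 and 80 uM), as percent of DMSO control. Five technical replicate plates, averaged.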
As for `Cl.Cl.O=C(O)Cn1nnc(-c2ccc(CN(CCCCOc3ccc(CN4CCCC4)cc3)CCc3ccccc3)cc2)n1`, the total intracellular glutathione is 97 ± 3.3. Regarding `COc1cc2ncnc(Nc3ccc(F)c(Cl)c3)c2cc1NC(=O)/C=C/CN1CCCCC1`, the total intracellular glutathione was found to be 59.3 ± 3.2. Still for that read-out and setting: in the case of `Cc1cc(-c2ccccc2)cc(C(=O)NNS(=O)(=O)c2ccccc2)c1F` it was 109 ± 5.4; in that of `Cn1c(=O)n(-c2ccc(C(C)(C)C#N)cc2)c2c3cc(-c4cnc5ccccc5c4)ccc3ncc21`, 70.8 ± 2.6; in that of `CCCCCC[C@H]1C(=O)O[C@H](C)[C@H](NC(=O)c2cccc(NC=O)c2O)C(=O)O[C@@H](C)[C@@H]1OC(=O)CC(C)C`, 69.4 ± 4. Turning to `COC(=O)[C@]1(C)CC[C@]2(C)CC[C@]3(C)C4=CC=C5C(=CC(=O)C(O)=C5C)[C@]4(C)CC[C@@]3(C)[C@@H]2C1`, the total intracellular glutathione was 4.42 ± 1.3.

Staying with this experiment, now noted: 20 µM; 24 h.
Regarding `O=C(Nc1nc(-c2ccccc2)ns1)c1cccs1`, the total intracellular glutathione came to 103 ± 7.2. As for `Cc1cc2c(C(C)C)c(O)c(O)c(C=O)c2c(O)c1-c1c(C)cc2c(C(C)C)c(O)c(O)c(C=O)c2c1O`, the total intracellular glutathione amounted to 63.3 ± 3.2. Regarding `C=CC(=O)Nc1cc(Nc2nccc(-c3cn(C)c4ccccc34)n2)c(OC)cc1N(C)CCN(C)C`, the total intracellular glutathione turned out to be 50.4 ± 3.9. On the same count and under the same terms, under `O=S1(=O)C=Cc2ccccc21` stands 141 ± 7.7; under `CC(=O)c1c(O)c(C)c(O)c(Cc2c(O)c3c(c(C(=O)C=Cc4ccccc4)c2O)OC(C)(C)C=C3)c1O`, 89.9 ± 4.4.

As for `CC1(C)CC[C@]2(C(=O)n3ccnc3)CC[C@]3(C)[C@H](C(=O)C=C4[C@@]5(C)C=C(C#N)C(=O)C(C)(C)[C@@H]5CC[C@]43C)[C@@H]2C1`, the total intracellular glutathione was found to be 38.6 ± 5.8. On the same count and under the same terms, in the case of `COC[C@H]1OC(=O)c2coc3c2[C@@]1(C)C1=C(C3=O)[C@@H]2CCC(=O)[C@@]2(C)C[C@H]1OC(C)=O` it was 76.8 ± 3.8; in that of `c1ccc(Nc2nc(-c3ccccc3)ns2)cc1`, 98.2 ± 2.9. As for `C=CC(=O)Nc1cccc(Oc2nc(Nc3ccc(N4CCN(C)CC4)cc3OC)ncc2Cl)c1`, the total intracellular glutathione is 108 ± 2.

Consider `Cn1nnnc1SC1=CS(=O)(=O)c2ccccc21`, for which the total intracellular glutathione stood at 23.3 ± 3.9. On the same count and under the same terms, under `CCC(=O)N1CCN(c2ccc(-n3c(=O)ccc4cnc5ccc(-c6cnc7ccccc7c6)cc5c43)cc2C(F)(F)F)CC1` stands 64 ± 3.3; under `O=C1CC(Nc2ccccc2)C(=O)N1Cc1ccccc1` (stereo not drawn), 102 ± 6.3; under `C[C@@H]1C[C@H]2O[C@@H]2/C=C\C=C\C(=O)Cc2c(Cl)c(O)cc(O)c2C(=O)O1`, 12.9 ± 0.62. Same read-out and setting: under `C=CC(=O)Nc1cc2c(Nc3ccc(F)c(Cl)c3)ncnc2cc1OCCCN1CCOCC1` stands 4.36 ± 0.66; under `O=C1/C(=C/c2ccc(O)c(Br)c2)CCC/C1=C\c1ccc(O)c(Br)c1`, 120 ± 2.2; under `CNC(=O)Nc1ccc2c(c1)CC[C@@]21OC(=O)N(CC(=O)N(Cc2ccc(F)cc2)[C@@H](C)C(F)(F)F)C1=O`, 79 ± 7.5. The same measure, in the same setting: in the case of `O=C(O[C@@H]1Cc2c(O)cc(O)cc2O[C@@H]1c1cc(O)c(O)c(O)c1)c1cc(O)c(O)c(O)c1` it was 63.7 ± 3.8; in that of `O=S1(=O)C=C(Sc2nn(-c3ccccc3)c(=S)s2)c2ccccc21`, 29.2 ± 4.9.

On to `C=CC(=O)Nc1ccc(CN2C(=O)N(c3cc(OC)cc(OC)c3)Cc3cnc(Nc4ccc(N5CCN(C)CC5)cc4)nc32)cc1`, for which the total intracellular glutathione turned out to be 98.9 ± 4.6. The same measure, in the same setting: in the case of `CCCCCCCCCCCCCCCc1cccc(O)c1C(=O)O` it was 98.8 ± 4.7. Consider `Cl.Cl.O=C(O)Cn1nnc(-c2ccc(CN(CCCCOc3ccc(CN4CCCC4)cc3)CCc3ccccc3)cc2)n1`, for which the total intracellular glutathione is 95.5 ± 4.5. On the same count and under the same terms, under `COc1cc2ncnc(Nc3ccc(F)c(Cl)c3)c2cc1NC(=O)/C=C/CN1CCCCC1` stands 18.3 ± 12.

Consider `Cc1cc(-c2ccccc2)cc(C(=O)NNS(=O)(=O)c2ccccc2)c1F`, for which the total intracellular glutathione was determined as 110 ± 4.2. On the same count and under the same terms, in the case of `Cn1c(=O)n(-c2ccc(C(C)(C)C#N)cc2)c2c3cc(-c4cnc5ccccc5c4)ccc3ncc21` it was 68.2 ± 2.1; in that of `CCCCCC[C@H]1C(=O)O[C@H](C)[C@H](NC(=O)c2cccc(NC=O)c2O)C(=O)O[C@@H](C)[C@@H]1OC(=O)CC(C)C`, 66.1 ± 3. The same measure, in the same setting: under `COC(=O)[C@]1(C)CC[C@]2(C)CC[C@]3(C)C4=CC=C5C(=CC(=O)C(O)=C5C)[C@]4(C)CC[C@@]3(C)[C@@H]2C1` stands 3.06 ± 0.32.

Still in this experiment, the particulars now being: 40 µM; 24 h.
Turning to `Cc1cc2c(C(C)C)c(O)c(O)c(C=O)c2c(O)c1-c1c(C)cc2c(C(C)C)c(O)c(O)c(C=O)c2c1O`, the total intracellular glutathione stood at 62.8 ± 3.7. The same measure, in the same setting: under `CC(=O)c1c(O)c(C)c(O)c(Cc2c(O)c3c(c(C(=O)C=Cc4ccccc4)c2O)OC(C)(C)C=C3)c1O` stands 83.2 ± 1.9; under `O=C1/C(=C/c2ccc(O)c(Br)c2)CCC/C1=C\c1ccc(O)c(Br)c1`, 119 ± 3.6. Turning to `O=C(O[C@@H]1Cc2c(O)cc(O)cc2O[C@@H]1c1cc(O)c(O)c(O)c1)c1cc(O)c(O)c(O)c1`, the total intracellular glutathione is 77.8 ± 5.7.

On to `CCCCCCCCCCCCCCCc1cccc(O)c1C(=O)O`, for which the total intracellular glutathione is 95.5 ± 3.8. The same measure, in the same setting: under `Cl.Cl.O=C(O)Cn1nnc(-c2ccc(CN(CCCCOc3ccc(CN4CCCC4)cc3)CCc3ccccc3)cc2)n1` stands 96.7 ± 2.5.

The experiment is the same for the next values; noted with them: 80 µM; 24 h.
As to `Cc1cc2c(C(C)C)c(O)c(O)c(C=O)c2c(O)c1-c1c(C)cc2c(C(C)C)c(O)c(O)c(C=O)c2c1O`, the total intracellular glutathione worked out at 18.2 ± 4.2.

Regarding `CC(=O)c1c(O)c(C)c(O)c(Cc2c(O)c3c(c(C(=O)C=Cc4ccccc4)c2O)OC(C)(C)C=C3)c1O`, the total intracellular glutathione was determined as 84.2 ± 4.5. Still for that read-out and setting: under `O=C1/C(=C/c2ccc(O)c(Br)c2)CCC/C1=C\c1ccc(O)c(Br)c1` stands 13.4 ± 2.5; under `O=C(O[C@@H]1Cc2c(O)cc(O)cc2O[C@@H]1c1cc(O)c(O)c(O)c1)c1cc(O)c(O)c(O)c1`, 53.9 ± 4.4. Still for that read-out and setting: under `CCCCCCCCCCCCCCCc1cccc(O)c1C(=O)O` stands 96.7 ± 3.9.

The record behind these values is the supplement of paper PMC10011410.
